Data reported in ChEMBL document CHEMBL1143379, “Isolation, structure elucidation and cytotoxic evaluation of endiandrin B from the Australian rainforest plant Endiandra anthropophagorum” (Bioorg Med Chem, 2009).
Activity calls are given as the source filed them. The rule behind the calls is not given here.

What was measured:
[1] = tested on: A549; experiment: Induction of early stage apoptosis in human A549 cells assessed as mitotracker dye uptake; format: functional, cell-based
[2] = tested on: A549; experiment: Cytotoxicity against human A549 cells after 24 hrs by propidium iodide assay; format: functional, cell-based; conditions: A549, 24 h
[3] = tested on: A549; experiment: Cytotoxicity against human A549 cells after 24 hrs by YO-PRO-1 assay; format: functional, cell-based; conditions: A549, 24 h
[4] = tested on: A549; experiment: Cytotoxicity against human A549 cells at 100 uM; format: functional
[5] = tested on: A549; experiment: Induction of early stage apoptosis in human A549 cells assessed as mitotracker dye uptake at 30 uM after 24 hrs; format: functional, cell-based

Question: How did the IC50 [1] turn out when `COc1cc(C[C@@H](C)[C@H](C)Cc2ccc(O)c(OC)c2)ccc1O` [(-)-DIHYDROGUAIARETICACID] was run?
Answer: The IC50 was 31.2 µM.

Question: What about the IC50 [2] of the same compound?
Answer: Its IC50 is 7.49 µM.

Question: What about the IC50 [3] of the same compound?
Answer: Its IC50 is 7.49 µM.

Question: With `COc1ccc([C@@H]2[C@@H](C)[C@@H](C)[C@@H]2c2ccc(OC)c(OC)c2)cc1OC` [CINBALANSAN] as the compound, how does the inhibition at 100 µM [4] read?
Answer: Its inhibition at 100 µM is 34%.

Question: And the Activity [5]?
Answer: Its Activity is “Active”.

Question: For `COc1cc2c(c(OC)c1OC)-c1ccc(OC)c(=O)cc1[C@@H](NC(C)=O)CC2` [COLCHICINE], which IC50 [2] is on record?
Answer: The IC50 was 0.0108 µg/mL.

Question: What about the IC50 [3] of the same compound?
Answer: Its IC50 is 0.0108 µg/mL.

Question: For `COc1cc([C@@H]2[C@@H](C)[C@H](C)[C@H]2c2ccc(O)c(OC)c2)ccc1O` [ENDIANDRIN A], which inhibition at 100 µM [4] is on record?
Answer: Its inhibition at 100 µM is 76%.

Question: For `COc1cc([C@@H]2[C@@H](C)[C@@H](C)[C@@H]2c2ccc(O)c(OC)c2)ccc1O` [ENDIANDRIN B], which inhibition at 100 µM [4] is on record?
Answer: Its inhibition at 100 µM is 75%.

Question: For `CC(=O)O[C@H]1C(=O)[C@@]2(C)[C@H]([C@H](OC(=O)c3ccccc3)[C@]3(O)C[C@H](OC(=O)[C@H](O)[C@@H](NC(=O)c4ccccc4)c4ccccc4)C(C)=C1C3(C)C)[C@]1(OC(C)=O)CO[C@@H]1C[C@@H]2O` [PACLITAXEL], which IC50 [3] is on record?
Answer: Its IC50 is 0.0196 µg/mL.

Question: For `COC[C@H]1OC(=O)c2coc3c2[C@@]1(C)C1=C(C3=O)[C@@H]2CCC(=O)[C@@]2(C)C[C@H]1OC(C)=O` [WORTMANNIN], which IC50 [2] is on record?
Answer: Its IC50 is 0.00428 µg/mL.

Question: What about the IC50 [3] of the same compound?
Answer: Its IC50 is 0.00428 µg/mL.
